Tests used:
Aurora-A = biological target: T1, Aurora-A (Homo sapiens, UniProt O14965); assay: Flashplate Aurora A enzyme inhibition assay; format: biochemical; conditions: Flashplate assay; IC50 range; read-out: Aurora-A inhibition
T1 sequence (O14965 1-403): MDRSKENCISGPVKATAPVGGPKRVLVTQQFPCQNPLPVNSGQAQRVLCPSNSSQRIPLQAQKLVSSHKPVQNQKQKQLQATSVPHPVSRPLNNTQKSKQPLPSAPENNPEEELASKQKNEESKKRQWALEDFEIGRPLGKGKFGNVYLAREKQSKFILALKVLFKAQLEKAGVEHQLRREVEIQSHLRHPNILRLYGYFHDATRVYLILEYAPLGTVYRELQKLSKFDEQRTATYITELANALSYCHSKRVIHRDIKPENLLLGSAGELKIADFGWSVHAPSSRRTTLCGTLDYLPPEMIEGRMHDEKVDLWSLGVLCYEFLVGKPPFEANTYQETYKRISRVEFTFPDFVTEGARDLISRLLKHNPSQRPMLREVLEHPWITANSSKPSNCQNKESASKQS
Procedure: Flashplate® Assay for Identification and Evaluation of Aurora-A Inhibitors
On this assay 384-well Basic Flashplate® (SMP400E, PerkinElmer) as solid assay platform was used. The plates were coated overnight at 4° C. with […] at 100 μg/ml in PBS buffer and used after being washed twice with PBS. 5 μl of compound in 2% DMSO was added to each well followed by 15 μl master mix of kinase buffer (50 mM Tris pH 7.5, 10 mM NaCl, 2.5 mM MgCl2, 1 mM […], 20 μM ATP, and 0.025 μCi/μl ^33P-ATP). Finally, 250 ng per well of Aurora-A enzyme was added. The plate was shaken for approximately 2 min on a flat-bed plate shaker (Wellmix, Denley, UK) and incubated for 2 hours at room temperature. The reaction was stopped by washing the plate twice on a 16-pin wash (ELX50 BioTek Instruments Ltd., Northstar, Bedford, UK) with 10 mM sodium pyrophosphate. The plate was then read on a TopCount-NX™ (PerkinElmer Life Sciences UK Ltd., Hounslow, UK).

HCT116 cells = assay: Cell viability assay (MTT) in HCT116 cell line; format: cell-based; conditions: Homo sapiens, HCT-116, 72 hrs, IC50 range, read-out: HCT116 cell growth inhibition
Procedure: Cell Viability Assay: Determination of IC50 of Aurora Inhibitors in HCT116 Cell Line Using MTT Assay. The effects of compounds of the Examples on cellular proliferation were determined using the MTT assay according to manufacturer's instructions (Sigma). Briefly, the human colon tumour cells HCT116, were seeded in triplicate into 96-well plates at 2500 cells/well 24 hours before treatment with a range of concentrations of Aurora inhibitors (0-50 μM). After 72 hrs, 15 μl/well of 0.5% 3-(4,5-dimethylthiazol-2-yl)-2,5-diphenyltetrazolium bromide (MTT) was added to the cells for 4 hrs at 37° C., the dye-stained viable cells were extracted by adding 150 μl/well of dimethyl sulphoxide (DMSO). […] The IC50 was calculated using the Prism software.

| Structure (SMILES) | IC50 (Aurora-A) [nM] | IC50 (HCT116 cells) [nM] |
| --- | --- | --- |
| NCc1nc2c(N3CCN(Cc4cccnc4)CC3)c(Br)cnc2[nH]1 [Example 100, (6-Bromo-7-(4-(pyridin-3-ylmethyl)piperazin-1-yl)-3H-imidazo[4,5-b]pyridin-2-yl)methanamine] | 2000 to 10000 | 2000 to 50000 |
| CN(C)c1ccc(-c2nc3c(N4CCN(C(=O)Nc5nccs5)CC4)c(Br)cnc3[nH]2)cc1 [Example 42, 4-(6-Bromo-2-(4-(dimethylamino)phenyl)-3H-imidazo[4,5-b]pyridin-7-yl)-N-(thiazol-2-yl)piperazine-1-carboxamide] | < 500 | 2000 to 50000 |
| Clc1cnc2[nH]c(-c3ccc(CN4CCOCC4)cc3)nc2c1N1CCN(Cc2cccnc2)CC1 [Example 79, 6-Chloro-2-(4-morpholin-4-ylmethyl-phenyl)-7-(4-pyridin-3-ylmethyl-piperazin-1-yl)-3H-imidazo[4,5-b]pyridine] | < 500 | < 500 |
| CN(C)c1ccc(-c2nc3c(N4CCN(Cc5ccc(Cl)cc5)CC4)c(Br)cnc3[nH]2)cc1 [Example 26, 4-(6-Bromo-7-(4-(4-chlorobenzyl)piperazin-1-yl)-3H-imidazo[4,5-b]pyridin-2-yl)-N,N-dimethylaniline] | < 500 | < 500 |
| COc1ccc(-c2nc3c(N4CCN(Cc5cncnc5)CC4)c(Br)cnc3[nH]2)cc1 [Example 121, 6-Bromo-2-(4-methoxyphenyl)-7-(4-(pyrimidin-5-ylmethyl)piperazin-1-yl)-3H-imidazo[4,5-b]pyridine] | < 500 | < 500 |
| Brc1cnc2[nH]c(-c3ccc(CN4CCOCC4)cc3)nc2c1N1CCN(Cc2nccs2)CC1 [Example 152, 4-(4-(6-Bromo-7-(4-(thiazol-2-ylmethyl)piperazin-1-yl)-3H-imidazo[4,5-b]pyridin-2-yl)benzyl)morpholine] | < 500 | 500 to 2000 |
| Cn1cncc1CN1CCN(c2c(Br)cnc3[nH]c(-c4ccc(Cn5cccn5)cc4)nc23)CC1 [Example 182, 2-(4-((1H-Pyrazol-1-yl)methyl)phenyl)-6-bromo-7-(4-((1-methyl-1H-imidazol-5-yl)methyl)piperazin-1-yl)-3H-imidazo[4,5-b]pyridine] | < 500 | 500 to 2000 |
| CN(C)c1ccc(-c2nc3c(N4CCN(CC(=O)Nc5ccccc5)CC4)c(Br)cnc3[nH]2)cc1 [Example 20, 2-(4-(6-Bromo-2-(4-(dimethylamino)phenyl)-3H-imidazo[4,5-b]pyridin-7-yl)piperazin-1-yl)-N-phenylacetamide] | < 500 | 500 to 2000 |
| O=C(CN1CCN(c2c(Br)cnc3[nH]c(-c4ccccc4)nc23)CC1)Nc1nccs1 [Example 5, 2-[4-(6-Bromo-2-phenyl-3H-imidazo[4,5-b]pyridin-7-yl)-piperazin-1-yl]-N-thiazol-2-yl-acetamide] | < 500 | 2000 to 50000 |
| Brc1cnc2[nH]c(-c3ccc(N4CCNCC4)cc3)nc2c1N1CCN(Cc2cccnc2)CC1 [Example 104, 6-Bromo-2-(4-(piperazin-1-yl)phenyl)-7-(4-(pyridin-3-ylmethyl)piperazin-1-yl)-3H-imidazo[4,5-b]pyridine] | < 500 | < 500 |
| CC(C)(C)OC(=O)NCc1cccc(-c2nc3c(N4CCN(CC(=O)Nc5nccs5)CC4)c(Br)cnc3[nH]2)c1 [Example 11, (3-{6-Bromo-7-[4-(thiazol-2-ylcarbamoylmethyl)-piperazin-1-yl]-3H-imidazo[4,5-b]pyridin-2-yl}-benzyl)-carbamic acid tert-butyl ester] | < 500 | 500 to 2000 |
| CN(C)c1ccc(-c2nc3c(N4CCN(CC(=O)Nc5ccccc5)CC4)c(Cl)cnc3[nH]2)cc1 [Example 22, 2-(4-(6-Chloro-2-(4-(dimethylamino)phenyl)-3H-imidazo[4,5-b]pyridin-7-yl)piperazin-1-yl)-N-phenylacetamide] | < 500 | 2000 to 50000 |
| Brc1cnc2[nH]c(-c3ccc(CN4CCOCC4)cc3)nc2c1N1CCN(CC2CCC2)CC1 [Example 150, 4-(4-(6-Bromo-7-(4-(cyclobutylmethyl)piperazin-1-yl)-3H-imidazo[4,5-b]pyridin-2-yl)benzyl)morpholine] | < 500 | < 500 |

Other lines, results leading:

| IC50 (Aurora-A) [nM] | IC50 (HCT116 cells) [nM] | Structure (SMILES) |
| --- | --- | --- |
| < 500 | 500 to 2000 | Brc1cnc2[nH]c(-c3ccc(OCCN4CCOCC4)cc3)nc2c1N1CCN(Cc2cccnc2)CC1 [Example 112, 4-(2-(4-(6-Bromo-7-(4-(pyridin-3-ylmethyl)piperazin-1-yl)-3H-imidazo[4,5-b]pyridin-2-yl)phenoxy)ethyl)morpholine] |
| < 500 | 500 to 2000 | CN(C)Cc1ccc(-c2nc3c(N4CCN(CC(=O)Nc5nccs5)CC4)c(Br)cnc3[nH]2)cc1 [Example 8, 2-{4-[6-Bromo-2-(4-dimethylaminomethyl-phenyl)-3H-imidazo[4,5-b]pyridin-7-yl]-piperazin-1-yl}-N-thiazol-2-yl-acetamide] |
| < 500 | 2000 to 50000 | CC(C)(C)OC(=O)NCCc1nc2c(N3CCN(Cc4cccnc4)CC3)c(Br)cnc2[nH]1 [Example 97, tert-Butyl 2-(6-bromo-7-(4-(pyridin-3-ylmethyl)piperazin-1-yl)-3H-imidazo[4,5-b]pyridin-2-yl)ethylcarbamate] |
| < 500 | 500 to 2000 | Brc1cnc2[nH]c(-c3ccc(Cn4ccnc4)cc3)nc2c1N1CCN(Cc2cccnc2)CC1 [Example 110, 2-(4-((1H-Imidazol-1-yl)methyl)phenyl)-6-bromo-7-(4-(pyridin-3-ylmethyl)piperazin-1-yl)-3H-imidazo[4,5-b]pyridine] |
| < 500 | < 500 | Cc1nc(CN2CCN(c3c(Br)cnc4[nH]c(-c5ccc(N6CCNCC6)cc5)nc34)CC2)cs1 [Example 163, 4-((4-(6-Bromo-2-(4-(piperazin-1-yl)phenyl)-3H-imidazo[4,5-b]pyridin-7-yl)piperazin-1-yl)methyl)-2-methylthiazole] |
| < 500 | < 500 | Cc1nc(CN2CCN(c3c(Cl)cnc4[nH]c(-c5ccc(CN6CCNCC6)cc5)nc34)CC2)cs1 [Example 175, 4-((4-(6-Chloro-2-(4-(piperazin-1-ylmethyl)phenyl)-3H-imidazo[4,5-b]pyridin-7-yl)piperazin-1-yl)methyl)-2-methylthiazole] |
| < 500 | 500 to 2000 | Clc1cnc2[nH]c(-c3ccc(N4CCNCC4)cc3)nc2c1N1CCN(Cc2cccnc2)CC1 [Example 137, 6-Chloro-2-(4-(piperazin-1-yl)phenyl)-7-(4-(pyridin-3-ylmethyl)piperazin-1-yl)-3H-imidazo[4,5-b]pyridine] |
| < 500 | 500 to 2000 | CN1CCN(Cc2cccc(-c3nc4c(N5CCN(Cc6cccnc6)CC5)c(Br)cnc4[nH]3)c2)CC1 [Example 58, 6-Bromo-2-(3-((4-methylpiperazin-1-yl)methyl)phenyl)-7-(4-(pyridin-3-ylmethyl)piperazin-1-yl)-3H-imidazo[4,5-b]pyridine] |
| < 500 | 500 to 2000 | O=C(CN1CCN(c2c(Cl)cnc3[nH]c(-c4ccc(OCCO)cc4)nc23)CC1)Nc1nccs1 [Example 183, 2-(4-(6-Chloro-2-(4-(2-hydroxyethoxy)phenyl)-3H-imidazo[4,5-b]pyridin-7-yl)piperazin-1-yl)-N-(thiazol-2-yl)acetamide] |
| < 500 | < 500 | Brc1cnc2[nH]c(-c3ccc(OCCN4CCOCC4)cc3)nc2c1N1CCN(Cc2ccncc2)CC1 [Example 82, 6-Bromo-2-[4-(2-morpholin-4-yl-ethoxy)-phenyl]-7-(4-pyridin-4-ylmethyl-piperazin-1-yl)-3H-imidazo[4,5-b]pyridine] |
| < 500 | 500 to 2000 | Brc1cnc2[nH]c(-c3ccc(Cn4cccn4)cc3)nc2c1N1CCN(Cc2cccnc2)CC1 [Example 107, 2-(4-((1H-Pyrazol-1-yl)methyl)phenyl)-6-bromo-7-(4-(pyridin-3-ylmethyl)piperazin-1-yl)-3H-imidazo[4,5-b]pyridine] |
| < 500 | 500 to 2000 | CC(c1ccncc1)N1CCN(c2c(Br)cnc3[nH]c(-c4cccc(CN5CCN(C)CC5)c4)nc23)CC1 (centres unmarked) [Example 95, 6-Bromo-2-(3-((4-methylpiperazin-1-yl)methyl)phenyl)-7-(4-(1-(pyridin-4-yl)ethyl)piperazin-1-yl)-3H-imidazo[4,5-b]pyridine] |

Reference: patent publication US8088761B2, “Enzyme inhibitors” (Cancer Research Technology Limited, priority 2005, dated 2012)
